Entries after “also recorded” stand apart in the source; their conditions may differ. Counter-ions that a name gives are not always drawn.
Tests used:
[1] = Tissue distribution after single i.v. injection; settings: for Metabolite Tissue AUC0–8h, Brain / Metabolite Tissue AUC0–8h, Heart / Metabolite Tissue AUC0–8h, Kidney / Metabolite Tissue AUC0–8h, Liver / Metabolite Tissue AUC0–8h, Lung / Metabolite Tissue AUC0–8h, Spleen: after 2.0 mg/kg i.v. of the parent drug; for rank order of the extent of exposure of the organs to the metabolite: after i.v. parent drug; for rank order of the extent of exposure of the organs to the parent drug: i.v. administration
[2] = Plasma pharmacokinetics after single i.v. injection; settings: for AUC0–8h (metabolite) / Cmax (metabolite) / Tmax (metabolite): metabolite in plasma after 2.0 mg/kg i.v. of the parent drug
[3] = test system: Swiss mice; settings: intraperitoneal (i.p.); cited from earlier work
[4] = In vivo toxicity, Up-and-Down method, single i.v. dose via tail vein; settings: male, CD-1, mouse, iv
[5] = male, CD-1, mouse, pH 7.4
[6] = test system: mouse liver microsomes (MLM); settings: MLM; for Vmax, best fit value: formation of EDDP/d6-EDDP, mean ± S.E.
[7] = human, pH 7.4
[8] = test system: human liver microsomes (HLM); settings: HLM; for Vmax, best fit value: formation of EDDP/d6-EDDP, mean ± S.E.
[9] = test system: postoperative mechanical hypersensitivity in mice; assay: Postoperative pain model; settings: post-operative treatment, 3 mg/kg i.p., once daily for 4 days; for effect on postoperative mechanical hypersensitivity: 3 mg/kg

| SMILES | Metabolite Tissue AUC0–8h, Brain [1] | Metabolite Tissue AUC0–8h, Heart [1] [ng·h/g] | Metabolite Tissue AUC0–8h, Kidney [1] [ng·h/g] | Metabolite Tissue AUC0–8h, Liver [1] [ng·h/g] | Metabolite Tissue AUC0–8h, Lung [1] [ng·h/g] | Metabolite Tissue AUC0–8h, Spleen [1] [ng·h/g] | rank order of the extent of exposure of the organs to the metabolite [1] | AUC0–8h (metabolite) [2] [ng·h/mL] | Cmax (metabolite) [2] [ng/mL] | Tmax (metabolite) [2] [min] | rank order of the extent of exposure of the organs to the parent drug [1] | Vmax, best fit value [6] | Vmax, best fit value [8] | effect on postoperative mechanical hypersensitivity [9] | further results |
| --- | --- | --- | --- | --- | --- | --- | --- | --- | --- | --- | --- | --- | --- | --- | --- |
| [2H]C([2H])([2H])C1CC(c2ccccc2)(c2ccccc2)C(=CC)N1C([2H])([2H])[2H] (stereo not drawn) [d6-EDDP] | <LLOQ^§ | 1243 ± 254 | 1562 ± 207 | 4375 ± 513 | 9886 ± 614 | 411 ± 33 | lungs > liver > kidney ≈ heart > spleen | 138 ± 25 | 48 ± 7 | 19.8 ± 8.4 |  |  |  |  | concentration of the metabolite in the brain ([1]; after 2.0 mg/kg i.v. d9-methadone, every time point): below the lower limit of quantification; plasma AUC0–8h of d6-EDDP, fold lower than AUC0–8h of EDDP ([2]; after i.v. parent drug): 2 fold; plasma Cmax of d6-EDDP, fold lower than Cmax of EDDP ([2]; after i.v. parent drug): 5 fold |
| CCC(=O)C(CC(C)N(C)C)(c1ccccc1)c1ccccc1 (racemic) [methadone, (±)-Methadone hydrochloride, reference compound] |  |  |  |  |  |  |  |  |  |  | kidneys ≈ lungs > spleen > liver > heart > brain | 2631 ± 121 pmol·min^−1·mg of protein^−1 | 1116 ± 17 pmol·min^−1·mg of protein^−1 | completely ineffective | LD50 [3]: 41 mg/kg; LD50 at 20 min [4]: 11.6 mg/kg; Km at 10 min [5]: 53.5 ± 5.1 µM; Km at 20 min [7]: 82.9 ± 3.7 µM; effect on postoperative mechanical hypersensitivity ([9]; listed as Methadone): unable to reduce the postoperative mechanical hypersensitivity |
| CC=C1N(C)C(C)CC1(c1ccccc1)c1ccccc1 (stereo not drawn) [EDDP, 2-ethylidene-1,5-dimethyl-3,3,-diphenylpyrrolidine] | 8.96 ± 5.26 ng·h/g | 2155 ± 144 | 2815 ± 226 | 5608 ± 218 | 9672 ± 856 | 622 ± 45 | lungs > liver > kidney ≈ heart > spleen | 257 ± 29 | 233 ± 28 | 8.4 ± 6 |  |  |  |  |  |
| [2H]C([2H])([2H])CC(=O)C(CC(C)N(C([2H])([2H])[2H])C([2H])([2H])[2H])(c1ccccc1)c1ccccc1 (racemic) [d9-methadone, (±)-d9-methadone] |  |  |  |  |  |  |  |  |  |  | lungs > kidneys ≈ liver > spleen > heart > brain | 1033 ± 45 pmol·min^−1·mg of protein^−1 | 438 ± 27 pmol·min^−1·mg of protein^−1 | alleviated hypersensitivity after each systemic injection; also recorded: significantly relieved postoperative mechanical hypersensitivity | deuteration effect on Vmax (HVmax/DVmax) [6]: 2.5; deuteration effect on Vmax (HVmax/DVmax) [8]: 2.5; development of analgesic tolerance [9]: no development of the apparent analgesic tolerance |

Source: publication PMC9886271 (Drug metabolism and pharmacokinetics, 2022)
